20 compounds from patent US9296723B2, “NAMPT inhibitors” (AbbVie Inc., priority 2012, dated 2016) can be followed below.

Molecules are shown by their SMILES.

Experiment [1] deals with T1, NAMPT (Homo sapiens, UniProt P43490). The experiment can be described thus: Time-Resolved Fluorescence Resonance Energy Transfer (TR-FRET) Binding Assay of NAMPT. Conditions: 6.8 nM NAMPT, 200 nM probe, equilibrated 3 hours, no substrates. The method, boiled down: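 IC50s come from four-parameter logistic fits of control-normalized Em520/Em495 TR-FRET ratios (Ex 337 nm) against compound concentration. Before reading, enzyme, probe, antibody and compound equilibrated for 3 h at room temperature.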
T1 sequence (P43490 whole entry): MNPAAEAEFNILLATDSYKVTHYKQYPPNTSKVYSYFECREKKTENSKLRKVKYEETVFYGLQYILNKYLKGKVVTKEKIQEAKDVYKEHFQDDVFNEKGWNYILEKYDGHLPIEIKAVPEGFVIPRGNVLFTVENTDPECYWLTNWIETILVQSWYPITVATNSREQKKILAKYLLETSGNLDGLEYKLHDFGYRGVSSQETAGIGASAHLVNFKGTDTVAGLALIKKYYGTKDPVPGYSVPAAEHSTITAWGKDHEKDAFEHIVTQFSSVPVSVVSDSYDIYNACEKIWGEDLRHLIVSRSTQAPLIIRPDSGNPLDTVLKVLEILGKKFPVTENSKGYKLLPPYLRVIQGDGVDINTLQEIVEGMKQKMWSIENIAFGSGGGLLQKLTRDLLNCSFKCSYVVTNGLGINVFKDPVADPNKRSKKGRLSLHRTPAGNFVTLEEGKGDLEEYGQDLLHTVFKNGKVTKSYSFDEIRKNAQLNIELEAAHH
On the technique in general: TR-FRET usually uses a lanthanide donor and a delayed reading to cut background.

The target in experiment [2] is T1, NAMPT. The experiment can be described thus: TR-FRET Binding Assay of NAMPT with PRPP. The following applies: 2 nM NAMPT, 2 nM probe, 200 µM PRPP and 2.5 mM ATP, equilibrated 16 hours. The method, boiled down:
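Substrates present: PRPP at 200 µM and ATP at 2.5 mM, final, alongside 2 nM enzyme, 2 nM tracer and 1 nM terbium anti-His donor in 2% DMSO. A 16-hour equilibration preceded the time-resolved FRET read, allowing compounds to be enzymatically modified.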

The subject of a further experiment is PC3 cells. The experiment can be described thus: NAMPT Cell Proliferation Assay (Cell Titer Glo). The format is cell-based. The following applies: Homo sapiens, PC-3, 120 h, incubated 5 days, cell viability. The gist of the method:
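Viability measured by Cell Titer Glo luminescence after 5-day exposure of attached PC3 cells to compound, dosed as 10-fold serial dilutions ([…]) in RPMI/10% FBS at 37 °C and 5% CO2. Percent inhibition fitted to sigmoidal dose-response curves for IC50.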
In general terms: Cellular ATP, detected with luciferase, serves as a proxy for viable cell number.

For `CC(C)(C)CC(=O)N1CCC(c2ccc(NC(=O)N3CC(c4cccnc4)C3)cc2)C1` (stereo not drawn) [Example 289, N-{4-[1-(3,3-dimethylbutanoyl)pyrrolidin-3-yl]phenyl}-3-(pyridin-3-yl)azetidine-1-carboxamide], the half-maximal inhibitory concentration (IC50) – broadly, the point on the concentration scale where inhibition reaches its midpoint – at NAMPT [1] stood at 29.6 nM; at NAMPT [2] it was 0.204 nM; with PC3 cells, 35.2 nM.

For the compound `O=C(Nc1ccc(C2CCN(C(=O)c3ccccc3)C2)cc1)N1CC(c2cccnc2)C1` (stereo not drawn) [Example 71, N-[4-(1-benzoylpyrrolidin-3-yl)phenyl]-3-(pyridin-3-yl)azetidine-1-carboxamide], the half-maximal inhibitory concentration (IC50) at NAMPT [1] is 20.1 nM; on NAMPT [2], 0.184 nM; with PC3 cells, 10.7 nM.

Consider `O=C(CC(F)(F)F)N1CC(Oc2ccc(NC(=O)N3CC(c4cccnc4)C3)cc2)C1` [Example 134, 3-(pyridin-3-yl)-N-(4-{[1-(3,3,3-trifluoropropanoyl)azetidin-3-yl]oxy}phenyl)azetidine-1-carboxamide], for which the IC50 stood at 54.2 nM on NAMPT [1], 0.317 nM at NAMPT [2] and 28.3 nM in the experiment with PC3 cells.

With `O=C(CC1CC1)N1CC(c2ccc(NC(=O)N3CC(c4cccnc4)C3)cc2)C1` [Example 105, N-{4-[1-(cyclopropylacetyl)azetidin-3-yl]phenyl}-3-(pyridin-3-yl)azetidine-1-carboxamide], the concentration for half-maximal inhibition (IC50) on NAMPT [1] is 68.3 nM; at NAMPT [2], 0.208 nM; with PC3 cells it was 60.9 nM.

Turning to `CC(C)(C)OC(=O)N1CCC(c2ccc(NC(=O)N3CC(c4cccnc4Cl)C3)cc2)CC1` [Example 112, tert-butyl 4-[4-({[3-(2-chloropyridin-3-yl)azetidin-1-yl]carbonyl}amino)phenyl]piperidine-1-carboxylate], the figures for the concentration for half-maximal inhibition (IC50) on NAMPT [1], on NAMPT [2] and in the experiment with PC3 cells were 43.5 nM, 45.9 nM and 906 nM, respectively.

With `CC1(C(=O)N2CC(Oc3ccc(NC(=O)N4CC(c5cccnc5)C4)cc3)C2)CCCCC1` [Example 152, N-[4-({1-[(1-methylcyclohexyl)carbonyl]azetidin-3-yl}oxy)phenyl]-3-(pyridin-3-yl)azetidine-1-carboxamide], the IC50 was determined as 5.18 nM at NAMPT [1], 0.42 nM at NAMPT [2] and 6.04 nM in the experiment with PC3 cells.

On to `CC(C)(O)C(=O)N1CCC(c2ccc(NC(=O)N3CC(c4cccnc4Cl)C3)cc2)CC1` [Example 161, 3-(2-chloropyridin-3-yl)-N-{4-[1-(2-hydroxy-2-methylpropanoyl)piperidin-4-yl]phenyl}azetidine-1-carboxamide], for which the IC50 is 8.62 nM on NAMPT [1], 5.79 nM on NAMPT [2] and 905 nM in the experiment on PC3 cells.

Consider `CCC(=O)N1CC[C@@H](Oc2ccc(NC(=O)N3CC(c4cccnc4)C3)cc2)C1` [Example 319, N-(4-{[(3R)-1-propanoylpyrrolidin-3-yl]oxy}phenyl)-3-(pyridin-3-yl)azetidine-1-carboxamide], for which the values for the IC50 on NAMPT [1], on NAMPT [2] and in the experiment on PC3 cells were 70.6 nM, 0.426 nM and 30.7 nM, respectively.

Turning to `O=C(Nc1ccc(C2CN(C(=O)C3CCOC3)C2)cc1)N1CC(c2cccnc2)C1` (stereo not drawn) [Example 104, 3-(pyridin-3-yl)-N-{4-[1-(tetrahydrofuran-3-ylcarbonyl)azetidin-3-yl]phenyl}azetidine-1-carboxamide], the concentration for half-maximal inhibition (IC50) came out at 188 nM at NAMPT [1], 0.389 nM at NAMPT [2] and 95.1 nM in the experiment on PC3 cells.

Regarding `CC1CC1C(=O)N1CC[C@@H](Oc2ccc(NC(=O)N3CC(c4cccnc4)C3)cc2)C1` (stereo partly drawn) [Example 301, N-[4-({(3R)-1-[(2-methylcyclopropyl)carbonyl]pyrrolidin-3-yl}oxy)phenyl]-3-(pyridin-3-yl)azetidine-1-carboxamide], the IC50 on NAMPT [1] was found to be 59 nM; on NAMPT [2] it was 0.243 nM; in the experiment on PC3 cells, 21.9 nM.

For `O=C(Nc1ccc(C2CN(C(=O)c3cccs3)C2)cc1)N1CC(c2cccnc2)C1` [Example 222, 3-(pyridin-3-yl)-N-{4-[1-(thiophen-2-ylcarbonyl)azetidin-3-yl]phenyl}azetidine-1-carboxamide], the results for the IC50 at NAMPT [1], at NAMPT [2] and in the experiment on PC3 cells were 10.7 nM, 0.183 nM and 11.9 nM, respectively.

Take `Cc1ccc(C2CN(C(=O)Nc3ccc(OC4CCN(C(=O)CC5CCOCC5)CC4)cc3)C2)cn1` [Example 8, 3-(6-methylpyridin-3-yl)-N-(4-{[1-(tetrahydro-2H-pyran-4-ylacetyl)piperidin-4-yl]oxy}phenyl)azetidine-1-carboxamide]: the half-inhibitory concentration (IC50) worked out at 617 nM at NAMPT [1], 15.4 nM on NAMPT [2] and 7030 nM with PC3 cells.

Turning to `O=C(Nc1ccc(C2CN(C(=O)c3ccco3)C2)cc1)N1CC(c2cccnc2)C1` [Example 224, N-{4-[1-(furan-2-ylcarbonyl)azetidin-3-yl]phenyl}-3-(pyridin-3-yl)azetidine-1-carboxamide], the values for the IC50 on NAMPT [1], on NAMPT [2] and in the experiment on PC3 cells were 26 nM, 0.333 nM and 20.7 nM, respectively.

Consider `CCCC(=O)N1CC[C@H](Oc2ccc(NC(=O)N3CC(c4cccnc4)C3)cc2)C1` [Example 99, N-(4-{[(3S)-1-butanoylpyrrolidin-3-yl]oxy}phenyl)-3-(pyridin-3-yl)azetidine-1-carboxamide], for which the results for the IC50 at NAMPT [1], at NAMPT [2] and in the experiment on PC3 cells were 223 nM, 0.414 nM and 49.3 nM, respectively.

As to `CC(C)(C)OC(=O)N1CCC(c2ccc(NC(=O)N3CC(c4cccnc4)C3)cc2)C1` (stereo not drawn) [Example 59, tert-butyl 3-[4-({[3-(pyridin-3-yl)azetidin-1-yl]carbonyl}amino)phenyl]pyrrolidine-1-carboxylate], the half-inhibitory concentration (IC50) is 38.5 nM at NAMPT [1], 0.364 nM on NAMPT [2] and 68.5 nM with PC3 cells.

Consider `O=C(CCC(F)(F)F)N1CCC(c2ccc(NC(=O)N3CC(c4cccnc4)C3)cc2)CC1` [Example 179, 3-(pyridin-3-yl)-N-{4-[1-(4,4,4-trifluorobutanoyl)piperidin-4-yl]phenyl}azetidine-1-carboxamide], for which the 50% inhibitory concentration (IC50) was found to be 32.5 nM at NAMPT [1], 0.249 nM at NAMPT [2] and 76.9 nM in the experiment with PC3 cells.

Turning to `CCOCCC(=O)N1CCC(c2ccc(NC(=O)N3CC(c4cccnc4)C3)cc2)C1` (stereo not drawn) [Example 274, N-{4-[1-(3-ethoxypropanoyl)pyrrolidin-3-yl]phenyl}-3-(pyridin-3-yl)azetidine-1-carboxamide], the figures for the IC50 at NAMPT [1], at NAMPT [2] and in the experiment with PC3 cells were 82.2 nM, 0.264 nM and 68.5 nM, respectively.

Turning to `CC(C)(C)C(=O)N1CCC(c2ccc(NC(=O)N3CC(c4cccnc4)C3)cc2)C1` (stereo not drawn) [Example 282, N-{4-[1-(2,2-dimethylpropanoyl)pyrrolidin-3-yl]phenyl}-3-(pyridin-3-yl)azetidine-1-carboxamide], the concentration for half-maximal inhibition (IC50) at NAMPT [1] is 26.6 nM; on NAMPT [2], 0.219 nM; with PC3 cells, 14.3 nM.

Turning to `O=C(CCC(F)(F)F)N1CCC(c2ccc(NC(=O)N3CC(c4cccnc4)C3)cc2)C1` (stereo not drawn) [Example 271, 3-(pyridin-3-yl)-N-{4-[1-(4,4,4-trifluorobutanoyl)pyrrolidin-3-yl]phenyl}azetidine-1-carboxamide], the half-inhibitory concentration (IC50) at NAMPT [1] came out at 46.9 nM; on NAMPT [2] it was 0.279 nM; with PC3 cells, 60.4 nM.

`CC1(C(=O)N2CC[C@@H](Oc3ccc(NC(=O)N4CC(c5cccnc5)C4)cc3)C2)CC1` [Example 309, N-[4-({(3R)-1-[(1-methylcyclopropyl)carbonyl]pyrrolidin-3-yl}oxy)phenyl]-3-(pyridin-3-yl)azetidine-1-carboxamide]: the half-inhibitory concentration (IC50) on NAMPT [1] stood at 32.8 nM; on NAMPT [2], 0.262 nM; in the experiment with PC3 cells, 11.1 nM.
